Assay results from patent publication US20260325655A1, “DECREASING THE INTRINSICALLY DISORDERED PROTEIN ALPHA-SYNUCLEIN’S LEVELS BY TARGETING ITS STRUCTURED MRNA WITH A RIBONUCLEASE TARGETING CHIMERA” (University of Florida Research Foundation, Incorporated, priority 2023, published 2026).

What was measured:
Assay type in all cases: cell-based, human
HHIPL1 = HHIPL1 protein in SH-SY5Y cells by Western blot; conditions: 2 μM, 48 h
Procedure: (§1) Western blotting. After 48 h, cells were gently washed with ice-cold 1× DPBS, and total protein was extracted with Mammalian Protein Extraction Reagent (M-PER, Thermo Scientific) per the manufacturer's protocol. After quantifying protein concentration by using BCA Protein Assay Kit (Pierce Biotechnology), ~30 μg of total protein for each sample was separated using a 10% SDS-polyacrylamide gel and transferred onto a PVDF membrane. The membrane was fixed with 0.4% paraformaldehyde (pH=7.0) for 30 min at room temperature^9 and then blocked with 5% (w/v) non-fat dry milk in 1× TBST (1× TBS containing 0.1% Tween-20) for 1 h at room temperature. […] After washing 10 min each with 1× TBST three times, immunocomplex signals of each protein were detected by using a SuperSignal West Pico Chemiluminescent Substrate (Pierce Biotechnology) according to the manufacturer's protocol. The memebrane was then stripped by using 1× Stripping Buffer (200 mM glycine, pH 2.2, 4 mM SDS, 1% (v/v) Tween 20) at room temperature for 15 min, followed by blocking with 5% (w/v) non-fat dry milk at room temperature for 1 h. β-actin was used to normalize the levels of all proteins, measured by incubating with a primary antibody for β-actin (1:5000, 3700S from Cell Signaling Technology) at 4° C. overnight. […]

APP = APP protein in SH-SY5Y cells by Western blot
Procedure: as §1

[1] = system: control luciferase reporter lacking an IRE; test: control luciferase reporter lacking an IRE; conditions: reporter lacks IRE / SNCA-UTR sequence
Description: Plasmid constructs and establishment of reporter gene overexpressing cells. Construction of pIRES-Luc-EGFP-puro plasmid and pCDH-α-syn-5′-UTR-Luc-EGFP-puro plasmid used in 5′ UTR-luciferase-based selectivity assay were previously described.^4 Briefly, In-Fusion PCR cloning system (Takara Bio, Mountain View, CA, USA) was used for all plasmid constructions per the manufacturer's instructions. To ensure sequence accuracy, all plasmids generated in this study were confirmed by sequencing.
Luciferase assay. The effect of compounds on translation of SNCA IRE-containing transcript was measured by using a luciferase reporter assay. HeLa cells (~60% confluency) were transfected with plasmids (2 μg per 60 mm dish) by using JetPrime (Polyplus Transfection) according to the manufacturer's recommended procedures. Approximately 16 h after transfection, the transfection cocktail was removed, and the cells were trypsinized and seeded to 96-well plates (8,000 cells per well). After 6 h, cells were treated as described in Cell Culture. To measure the luciferase signals, the cells were then washed with 1× DPBS, and luciferase activity in each well was measured by using the ONE-Glo Luciferase Assay System (Promega) per the manufacturer's instructions. Luminescence from firefly luciferase reaction was measured using a Biomek FLx800 plate reader.

TfR = TfR protein in SH-SY5Y cells by Western blot
Procedure: as §1

ferritin mRNA = ferritin mRNA in SH-SY5Y cells by RT-qPCR
Procedure: RNA extraction and reverse transcription-quantitative polymerase chain reaction (RT-qPCR). Total RNA was extracted from cells using a Quick-RNA MiniPrep Kit (Zymo Research) per the manufacturer's protocol including DNase treatment. For each sample, 200 ng of RNA was reverse transcribed into cDNA by using a qScript cDNA Synthesis Kit (QuantaBio) according to the manufacturer's instructions. To assess the relative mRNA levels, RT-qPCR was performed in triplicate using SYBR Green PCR mater mix (Applied Biosystems) with a Quant Studio 5 Real-Time PCR system. The relative levels of mRNA were calculated by using the ΔΔCt method as previously described.^8

## CCOC(=O)C1=C(Nc2ccccc2)S/C(=C\c2ccc(OCCOCCOCCOCCNC(=O)CCCOc3ccc(-n4c(SCC(=O)Nc5ccc6cn[nH]c6c5)nnc4-c4ccncc4)cc3)c(O)c2)C1=O [Syn-RiboTAC]
HHIPL1
  reduction of HHIPL1 protein level: ~ 20%
APP
  effect on APP protein level: no effect
[1]
  inhibition in the control luciferase reporter: Neither compound showed inhibition
TfR
  effect on TfR protein level: no effect
Ferritin mRNA
  effect on ferritin mRNA level: None of the three transcripts was affected
